Patent US20230279021A1, “POLYMORPHS OF A GABAA ALPHA5 AGONIST AND METHODS OF USING IN THE TREATMENT OF COGNITIVE IMPAIRMENT” (AGENEBIO, INC., priority 2020, published 2023)
Entries after “also recorded” stand apart in the source; their conditions may differ.

What was measured:
aged-impaired rats [1] = test: Morris Water Maze behavioral task, acute and chronic IP treatment; format: in vivo, Long-Evans rats; details: 10 mg/kg IP, compared to vehicle control
Description: (§1) Aged, male Long-Evans rats were obtained at 9 months of age from Charles River Laboratories (Raleigh, N.C.) and housed in a vivarium at The Johns Hopkins University until background behavioral assessment in a water maze at 24 months of age. Young rats obtained from the same source were housed in the same vivarium and were included in the background assessment at 6 months of age but were not used for drug testing in a radial arm maze task. All rats were individually housed at 25° C. and maintained on a 12 h light/dark cycle. Food and water were provided ad libitum unless noted otherwise. The rats were examined for health and pathogen-free status throughout the experiments, as well as necropsies at the time of killing. All procedures were in accordance with NIH guidelines using protocols approved by the Institutional Animal Care and Use Committee at The Johns Hopkins University.
All rats were screened in a standardized assessment of spatial cognition before the commencement of drug studies. […]
Rats were trained and tested in a novel water maze environment to assess the effect of the treatments. […] An hour after the last training trial, rats were given a probe test in the absence of the escape platform (free swim) to assess the memory of the platform location as measured by time spent searching at the target location. […]

aged-impaired rats [2] = test: Radial Arm Maze behavioral task, acute PO treatment; format: in vivo, Long-Evans rats; details: 10 mg/kg PO, 5-hr retention delay, compared to vehicle control
Description: as §1
All rats were screened in a standardized assessment of spatial cognition before the commencement of drug studies. The background assessment used a well-established Morris water maze protocol as described in detail elsewhere (Gallagher et al, 1993). Briefly, the rats were trained for 8 days (three trials per day) to locate a camouflaged escape platform that remained at the same location throughout training in a water maze. […]

[3] = pKa of Compound 1 free base; format: physicochemical
[4] = Thermal decomposition by DSC; format: physicochemical; details: 10° C./min
Description: DSC was performed using a Mettler-Toledo DSC3+ differential scanning calorimeter. A tau lag adjustment is performed with indium, tin, and zinc. The temperature and enthalpy are adjusted with octane, phenyl salicylate, indium, tin and zinc. The adjustment is then verified with octane, phenyl salicylate, indium, tin, and zinc. The sample was placed into a hermetically sealed aluminum DSC pan, the weight was accurately recorded, and the sample was inserted into the DSC cell. A weighed aluminum pan configured as the sample pan was placed on the reference side of the cell. The pan lid was pierced prior to sample analysis. The samples were analyzed from −25° C. to 250° C. at 10° C./min.

[5] = Dynamic vapor sorption (DVS) hygroscopicity; format: physicochemical; details: for hygroscopicity (DVS isotherm): 5% to 95% RH; for form of material recovered from the DVS experiment by XRPD: post DVS
Description: Dynamic vapor sorption data was collected on a Surface Measurement System DVS Intrinsic instrument. The samples were not dried prior to analysis. Sorption and desorption data were collected over a range from 5% to 95% RH in 10% RH increments under a nitrogen purge. The equilibrium criteria used for the analyses were 0.001 dm/dt weight change in 5 minutes with a minimum step time of 30 minutes and maximum equilibration time of 180 minutes with a 3-minute data logging interval. Data were not corrected for the initial moisture content of the sample. The samples were identified as having low, limited or significant hygroscopicity based on the definitions in the below table.

[6] = Competitive interconversion slurry experiments (relative thermodynamic stability of crystalline forms); format: physicochemical; details: solvent-mediated interconversion slurries, ambient temperature (Form E also 55° C. and 77° C.)
Description: Interconversion experiments were performed to identify the most thermodynamically stable anhydrous form of Compound 1 (Table 9). […] The choice of solvent affects the kinetics of polymorph conversion and not the thermodynamic relationship between polymorphic forms.
Various combinations of Forms B, E, F, and Material D were slurried with Form A at ambient and elevated temperatures (for experiments involving Form E). Different solvent systems were used and included a variety of water activities. Saturated solutions were generated and then added to the mixtures composed of approximately equivalent quantities of the forms. The mixtures were slurried for a particular duration of time and the solids harvested and analyzed by XRPD.

[7] = Solid-state stability of crystalline forms on storage or heating (XRPD); format: physicochemical
Description: XRPD patterns were collected with a PANalytical X'Pert PRO MPD or a PANalytical Empyrean diffractometer using an incident beam of Cu radiation produced using an Optix long, fine-focus source. An elliptically graded multilayer mirror was used to focus Cu Kα X-rays through the specimen and onto the detector. Prior to the analysis, a silicon specimen (NIST SRM 640e) was analyzed to verify the observed position of the Si 111 peak is consistent with the NIST-certified position. A specimen of the sample was sandwiched between 3-μm-thick films and analyzed in transmission geometry. A beam-stop, short antiscatter extension, and antiscatter knife edge were used to minimize the background generated by air. Soller slits for the incident and diffracted beams were used to minimize broadening from axial divergence. Diffraction patterns were collected using a scanning position-sensitive detector (X'Celerator) located 240 mm from the specimen and Data Collector software v. 5.5. […] All images have the instrument labeled as X'Pert PRO MPD regardless of the instrument used.

Structure (SMILES): COCc1nnc2n1Cc1c(C#Cc3cnc(OC)s3)ncn1-c1ccc(Cl)cc1-2 [Compound 1, 5-((3-chloro-7-(methoxymethyl)-9H-benzo[f]imidazo[1,5-a][1,2,4]triazolo[4,3-d][1,4]diazepin-10-yl)ethynyl)-2-methoxythiazole]
- time spent in target quadrant of the Morris Water Maze (aged-impaired rats [1]): more time in the target quadrant
- number of errors in radial arm maze retention test (aged-impaired rats [2]): fewer errors
- pKa [3]: 1.16 ± 0.04

Structure (SMILES): COCc1nnc2n1Cc1c(C#Cc3cnc(OC)s3)ncn1-c1ccc(Cl)cc1-2 [Form A]
- DSC exotherm due to decomposition, onset [4]: about 207 °C
- hygroscopicity (DVS isotherm) [5]: limited hygroscopicity; also recorded: low hygroscopicity
- weight change through the sorption/desorption cycle ([5]; DVS, no hysteresis): ~0.3%
- form of material recovered from the DVS experiment by XRPD [5]: same as the starting material
- relative thermodynamic stability [6]: more thermodynamically stable than Form B and Material D at ambient temperature and more thermodynamically stable than Form E at ambient temperature, 55° C., and 77 °C

Structure (SMILES): COCc1nnc2n1Cc1c(C#Cc3cnc(OC)s3)ncn1-c1ccc(Cl)cc1-2 [Form B]
- DSC exotherm due to decomposition, onset [4]: about 190 °C
- relative thermodynamic stability [6]: metastable relative to Form A

Structure (SMILES): COCc1nnc2n1Cc1c(C#Cc3cnc(OC)s3)ncn1-c1ccc(Cl)cc1-2 [Form C]
- DSC exotherm due to decomposition, onset [4]: 190 °C
- stability under ambient conditions ([7]; 9 weeks under ambient conditions): unchanged
- stability upon overnight exposure to 80° C. ([7]; overnight exposure to 80° C.): desolvate to Form B

Structure (SMILES): COCc1nnc2n1Cc1c(C#Cc3cnc(OC)s3)ncn1-c1ccc(Cl)cc1-2 [Form E]
- DSC exotherm due to decomposition, onset [4]: ~201 °C
- relative thermodynamic stability [6]: metastable relative to Form A

Structure (SMILES): COCc1nnc2n1Cc1c(C#Cc3cnc(OC)s3)ncn1-c1ccc(Cl)cc1-2 [Form F]
- DSC exotherms following dehydration endotherm (decomposition upon dehydration) [4]: above 120 °C
- hygroscopicity (DVS isotherm) [5]: limited hygroscopicity
- weight gain ([5]; DVS, from 5-95% RH): 1.8%
- weight loss upon desorption ([5]; DVS, significant hysteresis): 1.5%
- form of material recovered from the DVS experiment by XRPD [5]: still Form F
- stability under vacuum ([7]; 5 days under vacuum at ambient temperature): unchanged
- stability upon exposure to 100° C. ([7]; exposure to 100° C. (several minutes, XRPD)): dehydrate; also recorded: loss of crystallinity

Structure (SMILES): COCc1nnc2n1Cc1c(C#Cc3cnc(OC)s3)ncn1-c1ccc(Cl)cc1-2 [Material D]
- DSC exotherm due to decomposition, onset [4]: ~174 °C
- stability on ambient storage (XRPD) ([7]; 7 weeks of ambient storage, mixture with Form A): still remained
- relative thermodynamic stability [6]: metastable relative to Form A
